# ChEMBL document CHEMBL1201861, “Genomics of Drug Sensitity in Cancer screening data, Wellcome Trust Sanger Institute”
# System: Calu-6;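 note: growth of human Calu-6 cells, read out by a cell viability assay, IC50 marking inhibition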
# Assay: cells
# Type: functional, cell-based, Homo sapiens
# Conditions: Homo sapiens, Calu-6
row,Compound,IC50 [nM]
1,COc1cc2ncn(-c3cc(OCc4ccccc4C(F)(F)F)c(C(N)=O)s3)c2cc1OC [GW843682X],36.7

# System: D-247MG
# Assay: cells
# Type: functional, cell-based, Homo sapiens
# Conditions: Homo sapiens, D-247MG
# Description: SANGER: Inhibition of human D-247MG cell growth in a cell viability assay.
row,Compound,IC50 [nM]
1,COc1cc2ncn(-c3cc(OCc4ccccc4C(F)(F)F)c(C(N)=O)s3)c2cc1OC [GW843682X],> 256

# System: D-263MG
# Assay: cells
# Type: functional, cell-based, Homo sapiens
# Conditions: Homo sapiens, D-263MG
# Description: SANGER: Inhibition of human D-263MG cell growth in a cell viability assay.
row,Compound,IC50 [nM]
1,COc1cc2ncn(-c3cc(OCc4ccccc4C(F)(F)F)c(C(N)=O)s3)c2cc1OC [GW843682X],> 256

# System: DB
# Assay: cells
# Type: functional, cell-based, Homo sapiens
# Conditions: Homo sapiens, DB
# Description: SANGER: Inhibition of human DB cell growth in a cell viability assay.
row,Compound,IC50 [nM]
1,COc1cc2ncn(-c3cc(OCc4ccccc4C(F)(F)F)c(C(N)=O)s3)c2cc1OC [GW843682X],> 256

# System: DMS-79;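 note: growth inhibition measured with a cell viability assay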
# Assay: cells
# Type: functional, cell-based, Homo sapiens
# Conditions: Homo sapiens, DMS-79
# Description: SANGER: Inhibition of human DMS-79 cell growth in a cell viability assay.
row,Compound,IC50 [nM]
1,COc1cc2ncn(-c3cc(OCc4ccccc4C(F)(F)F)c(C(N)=O)s3)c2cc1OC [GW843682X],> 256

# System: DU-4475
# Assay: cells
# Type: functional, cell-based, Homo sapiens
# Conditions: Homo sapiens, DU-4475
# Description: SANGER: Inhibition of human DU-4475 cell growth in a cell viability assay.
row,Compound,IC50 [nM]
1,COc1cc2ncn(-c3cc(OCc4ccccc4C(F)(F)F)c(C(N)=O)s3)c2cc1OC [GW843682X],80

# System: EW-1;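 note: growth inhibition of the human EW-1 cell line, read out by a cell viability assay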
# Assay: cells
# Type: functional, cell-based, Homo sapiens
# Conditions: Homo sapiens, EW-1
# Description: SANGER: Inhibition of human EW-1 cell growth in a cell viability assay.
row,Compound,IC50 [nM]
1,COc1cc2ncn(-c3cc(OCc4ccccc4C(F)(F)F)c(C(N)=O)s3)c2cc1OC [GW843682X],16.8

# System: HCC2218;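 note: cell viability assay read-out, with IC50 given as the concentration that inhibits growth of the cell line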
# Assay: cells
# Type: functional, cell-based, Homo sapiens
# Conditions: Homo sapiens, HCC2218
# Description: SANGER: Inhibition of human HCC2218 cell growth in a cell viability assay.
row,Compound,IC50 [nM]
1,COc1cc2ncn(-c3cc(OCc4ccccc4C(F)(F)F)c(C(N)=O)s3)c2cc1OC [GW843682X],> 256

# System: HEL;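 note: growth inhibition of HEL cells, read out with a cell viability assay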
# Assay: cells
# Type: functional, cell-based, Homo sapiens
# Conditions: Homo sapiens, HEL
# Description: SANGER: Inhibition of human HEL cell growth in a cell viability assay.
row,Compound,IC50 [nM]
1,COc1cc2ncn(-c3cc(OCc4ccccc4C(F)(F)F)c(C(N)=O)s3)c2cc1OC [GW843682X],27.5

# System: HT
# Assay: cells
# Type: functional, cell-based, Homo sapiens
# Conditions: Homo sapiens, HT
# Description: SANGER: Inhibition of human HT cell growth in a cell viability assay.
row,Compound,IC50 [nM]
1,COc1cc2ncn(-c3cc(OCc4ccccc4C(F)(F)F)c(C(N)=O)s3)c2cc1OC [GW843682X],128

# System: HT-144
# Assay: cells
# Type: functional, cell-based, Homo sapiens
# Conditions: Homo sapiens, HT-144
# Description: SANGER: Inhibition of human HT-144 cell growth in a cell viability assay.
row,Compound,IC50 [nM]
1,COc1cc2ncn(-c3cc(OCc4ccccc4C(F)(F)F)c(C(N)=O)s3)c2cc1OC [GW843682X],16.4

# System: HuTu80;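 note: growth inhibition of HuTu80 human cells, determined with a cell viability readout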
# Assay: cells
# Type: functional, cell-based, Homo sapiens, HUTU-80
# Conditions: Homo sapiens, HuTu80
# Description: SANGER: Inhibition of human HUTU-80 cell growth in a cell viability assay.
row,Compound,IC50 [nM]
1,COc1cc2ncn(-c3cc(OCc4ccccc4C(F)(F)F)c(C(N)=O)s3)c2cc1OC [GW843682X],22.3

# System: JAR;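 note: growth inhibition of human JAR cells determined with a cell viability assay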
# Assay: cells
# Type: functional, cell-based, Homo sapiens
# Conditions: Homo sapiens, JAR
# Description: SANGER: Inhibition of human JAR cell growth in a cell viability assay.
row,Compound,IC50 [nM]
1,COc1cc2ncn(-c3cc(OCc4ccccc4C(F)(F)F)c(C(N)=O)s3)c2cc1OC [GW843682X],56.8

# System: KM12;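 note: KM12 cell growth inhibition, read out with a cell viability assay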
# Assay: cells
# Type: functional, cell-based, Homo sapiens
# Conditions: Homo sapiens, KM12
# Description: SANGER: Inhibition of human KM12 cell growth in a cell viability assay.
row,Compound,IC50 [nM]
1,COc1cc2ncn(-c3cc(OCc4ccccc4C(F)(F)F)c(C(N)=O)s3)c2cc1OC [GW843682X],16.5

# System: LB996-RCC
# Assay: cells
# Type: functional, cell-based, Homo sapiens
# Conditions: Homo sapiens, LB996-RCC
# Description: SANGER: Inhibition of human LB996-RCC cell growth in a cell viability assay.
row,Compound,IC50 [nM]
1,COc1cc2ncn(-c3cc(OCc4ccccc4C(F)(F)F)c(C(N)=O)s3)c2cc1OC [GW843682X],104

# System: LC-2-ad;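 note: growth inhibition of human LC-2-ad cells, read out with a cell viability assay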
# Assay: cells
# Type: functional, cell-based, Homo sapiens
# Conditions: Homo sapiens, LC-2-ad
# Description: SANGER: Inhibition of human LC-2-ad cell growth in a cell viability assay.
row,Compound,IC50 [nM]
1,COc1cc2ncn(-c3cc(OCc4ccccc4C(F)(F)F)c(C(N)=O)s3)c2cc1OC [GW843682X],15.6

# System: LNCaP-Clone-FGC
# Assay: cells
# Type: functional, cell-based, Homo sapiens
# Conditions: Homo sapiens, LNCaP-Clone-FGC
# Description: SANGER: Inhibition of human LNCaP-Clone-FGC cell growth in a cell viability assay.
row,Compound,IC50 [nM]
1,COc1cc2ncn(-c3cc(OCc4ccccc4C(F)(F)F)c(C(N)=O)s3)c2cc1OC [GW843682X],> 256

# System: MZ1-PC;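 note: cell viability assay measuring growth inhibition of human MZ1-PC cells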
# Assay: cells
# Type: functional, cell-based, Homo sapiens
# Conditions: Homo sapiens, MZ1-PC
# Description: SANGER: Inhibition of human MZ1-PC cell growth in a cell viability assay.
row,Compound,IC50 [nM]
1,COc1cc2ncn(-c3cc(OCc4ccccc4C(F)(F)F)c(C(N)=O)s3)c2cc1OC [GW843682X],22.2

# System: MZ7-mel;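 note: growth inhibition of human MZ7-mel cells, measured by a cell viability assay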
# Assay: cells
# Type: functional, cell-based, Homo sapiens
# Conditions: Homo sapiens, MZ7-mel
# Description: SANGER: Inhibition of human MZ7-mel cell growth in a cell viability assay.
row,Compound,IC50 [nM]
1,COc1cc2ncn(-c3cc(OCc4ccccc4C(F)(F)F)c(C(N)=O)s3)c2cc1OC [GW843682X],83.9

# System: NB10;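 note: growth inhibition of NB10 cells, read out by a cell viability assay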
# Assay: cells
# Type: functional, cell-based, Homo sapiens
# Conditions: Homo sapiens, NB10
# Description: SANGER: Inhibition of human NB10 cell growth in a cell viability assay.
row,Compound,IC50 [nM]
1,COc1cc2ncn(-c3cc(OCc4ccccc4C(F)(F)F)c(C(N)=O)s3)c2cc1OC [GW843682X],> 256

# System: NB5;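 note: growth inhibition of NB5 cells, read out as cell viability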
# Assay: cells
# Type: functional, cell-based, Homo sapiens
# Conditions: Homo sapiens, NB5
# Description: SANGER: Inhibition of human NB5 cell growth in a cell viability assay.
row,Compound,IC50 [nM]
1,COc1cc2ncn(-c3cc(OCc4ccccc4C(F)(F)F)c(C(N)=O)s3)c2cc1OC [GW843682X],86.2

# System: NCI-H1092;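 note: cell growth inhibition measured with a cell viability assay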
# Assay: cells
# Type: functional, cell-based, Homo sapiens
# Conditions: Homo sapiens, NCI-H1092
# Description: SANGER: Inhibition of human NCI-H1092 cell growth in a cell viability assay.
row,Compound,IC50 [nM]
1,COc1cc2ncn(-c3cc(OCc4ccccc4C(F)(F)F)c(C(N)=O)s3)c2cc1OC [GW843682X],> 256

# System: NCI-H2126;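 note: growth inhibition of the cancer cell line, determined with a cell viability readout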
# Assay: cells
# Type: functional, cell-based, Homo sapiens
# Conditions: Homo sapiens, NCI-H2126
# Description: SANGER: Inhibition of human NCI-H2126 cell growth in a cell viability assay.
row,Compound,IC50 [nM]
1,COc1cc2ncn(-c3cc(OCc4ccccc4C(F)(F)F)c(C(N)=O)s3)c2cc1OC [GW843682X],67.9

# System: NCI-H226;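 note: cell viability read-out used to gauge growth inhibition of the cells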
# Assay: cells
# Type: functional, cell-based, Homo sapiens
# Conditions: Homo sapiens, NCI-H226
# Description: SANGER: Inhibition of human NCI-H226 cell growth in a cell viability assay.
row,Compound,IC50 [nM]
1,COc1cc2ncn(-c3cc(OCc4ccccc4C(F)(F)F)c(C(N)=O)s3)c2cc1OC [GW843682X],> 256

# System: NCI-H446;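 note: growth inhibition of NCI-H446 cells determined by a cell viability assay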
# Assay: cells
# Type: functional, cell-based, Homo sapiens
# Conditions: Homo sapiens, NCI-H446
# Description: SANGER: Inhibition of human NCI-H446 cell growth in a cell viability assay.
row,Compound,IC50 [nM]
1,COc1cc2ncn(-c3cc(OCc4ccccc4C(F)(F)F)c(C(N)=O)s3)c2cc1OC [GW843682X],12

# System: NCI-H69;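 note: growth inhibition of the cell line, read out with a cell viability assay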
# Assay: cells
# Type: functional, cell-based, Homo sapiens
# Conditions: Homo sapiens, NCI-H69
# Description: SANGER: Inhibition of human NCI-H69 cell growth in a cell viability assay.
row,Compound,IC50 [nM]
1,COc1cc2ncn(-c3cc(OCc4ccccc4C(F)(F)F)c(C(N)=O)s3)c2cc1OC [GW843682X],181

# System: SNU-5;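 note: cell viability readout used to measure growth inhibition in human NCI-SNU-5 cells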
# Assay: cells
# Type: functional, cell-based, Homo sapiens
# Conditions: Homo sapiens, SNU-5
# Description: SANGER: Inhibition of human NCI-SNU-5 cell growth in a cell viability assay.
row,Compound,IC50 [nM]
1,COc1cc2ncn(-c3cc(OCc4ccccc4C(F)(F)F)c(C(N)=O)s3)c2cc1OC [GW843682X],52

# System: NH-12;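 note: growth inhibition of NH-12 cells, read out with a cell viability assay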
# Assay: cells
# Type: functional, cell-based, Homo sapiens
# Conditions: Homo sapiens, NH-12
# Description: SANGER: Inhibition of human NH-12 cell growth in a cell viability assay.
row,Compound,IC50 [nM]
1,COc1cc2ncn(-c3cc(OCc4ccccc4C(F)(F)F)c(C(N)=O)s3)c2cc1OC [GW843682X],> 256

# System: QIMR-WIL;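 note: growth inhibition of QIMR-WIL cells, read out with a cell viability assay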
# Assay: cells
# Type: functional, cell-based, Homo sapiens
# Conditions: Homo sapiens, QIMR-WIL
# Description: SANGER: Inhibition of human QIMR-WIL cell growth in a cell viability assay.
row,Compound,IC50 [nM]
1,COc1cc2ncn(-c3cc(OCc4ccccc4C(F)(F)F)c(C(N)=O)s3)c2cc1OC [GW843682X],42.3

# System: RS4-11;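 note: growth inhibition of RS4-11 cells, read out by a cell viability assay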
# Assay: cells
# Type: functional, cell-based, Homo sapiens
# Conditions: Homo sapiens, RS4-11
# Description: SANGER: Inhibition of human RS4-11 cell growth in a cell viability assay.
row,Compound,IC50 [nM]
1,COc1cc2ncn(-c3cc(OCc4ccccc4C(F)(F)F)c(C(N)=O)s3)c2cc1OC [GW843682X],12.8

# System: RXF 393;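 note: growth inhibition of human RXF 393 cells, read out with a cell viability assay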
# Assay: cells
# Type: functional, cell-based, Homo sapiens
# Conditions: Homo sapiens, RXF 393
# Description: SANGER: Inhibition of human RXF393 cell growth in a cell viability assay.
row,Compound,IC50 [nM]
1,COc1cc2ncn(-c3cc(OCc4ccccc4C(F)(F)F)c(C(N)=O)s3)c2cc1OC [GW843682X],105

# System: Ramos-2G6-4C10;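 note: growth inhibition of the cell line, measured by a cell viability read-out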
# Assay: cells
# Type: functional, cell-based, Homo sapiens
# Conditions: Homo sapiens, Ramos-2G6-4C10
# Description: SANGER: Inhibition of human Ramos-2G6-4C10 cell growth in a cell viability assay.
row,Compound,IC50 [nM]
1,COc1cc2ncn(-c3cc(OCc4ccccc4C(F)(F)F)c(C(N)=O)s3)c2cc1OC [GW843682X],37.4

# System: SCH;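 note: growth inhibition of human SCH cells, read out in a cell viability assay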
# Assay: cells
# Type: functional, cell-based, Homo sapiens
# Conditions: Homo sapiens, SCH
# Description: SANGER: Inhibition of human SCH cell growth in a cell viability assay.
row,Compound,IC50 [nM]
1,COc1cc2ncn(-c3cc(OCc4ccccc4C(F)(F)F)c(C(N)=O)s3)c2cc1OC [GW843682X],> 256

# System: SJSA-1;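 note: growth inhibition of human SJSA-1 cells, read out through a cell viability measurement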
# Assay: cells
# Type: functional, cell-based, Homo sapiens
# Conditions: Homo sapiens, SJSA-1
# Description: SANGER: Inhibition of human SJSA-1 cell growth in a cell viability assay.
row,Compound,IC50 [nM]
1,COc1cc2ncn(-c3cc(OCc4ccccc4C(F)(F)F)c(C(N)=O)s3)c2cc1OC [GW843682X],32.7

# System: SK-LMS-1;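 note: growth inhibition of human SK-LMS-1 cells, read out with a cell viability assay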
# Assay: cells
# Type: functional, cell-based, Homo sapiens
# Conditions: Homo sapiens, SK-LMS-1
# Description: SANGER: Inhibition of human SK-LMS-1 cell growth in a cell viability assay.
row,Compound,IC50 [nM]
1,COc1cc2ncn(-c3cc(OCc4ccccc4C(F)(F)F)c(C(N)=O)s3)c2cc1OC [GW843682X],73.4

# System: SK-MEL-2;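 note: growth inhibition of human SK-MEL-2 cells measured with a cell viability assay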
# Assay: cells
# Type: functional, cell-based, Homo sapiens
# Conditions: Homo sapiens, SK-MEL-2
# Description: SANGER: Inhibition of human SK-MEL-2 cell growth in a cell viability assay.
row,Compound,IC50 [nM]
1,COc1cc2ncn(-c3cc(OCc4ccccc4C(F)(F)F)c(C(N)=O)s3)c2cc1OC [GW843682X],> 256

# System: SK-PN-DW;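 note: growth inhibition measured with a viability assay on these cells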
# Assay: cells
# Type: functional, cell-based, Homo sapiens
# Conditions: Homo sapiens, SK-PN-DW
# Description: SANGER: Inhibition of human SK-PN-DW cell growth in a cell viability assay.
row,Compound,IC50 [nM]
1,COc1cc2ncn(-c3cc(OCc4ccccc4C(F)(F)F)c(C(N)=O)s3)c2cc1OC [GW843682X],38.7

# System: SW684;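 note: growth inhibition of human SW684 cells, measured by a cell viability assay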
# Assay: cells
# Type: functional, cell-based, Homo sapiens
# Conditions: Homo sapiens, SW684
# Description: SANGER: Inhibition of human SW684 cell growth in a cell viability assay.
row,Compound,IC50 [nM]
1,COc1cc2ncn(-c3cc(OCc4ccccc4C(F)(F)F)c(C(N)=O)s3)c2cc1OC [GW843682X],> 256

# System: A498;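 note: growth inhibition of human A498 cells, read out with a cell viability assay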
# Assay: cells
# Type: functional, cell-based, Homo sapiens
# Conditions: Homo sapiens, A498
# Description: SANGER: Inhibition of human A498 cell growth in a cell viability assay.
row,Compound,IC50 [nM]
1,COc1cc2ncn(-c3cc(OCc4ccccc4C(F)(F)F)c(C(N)=O)s3)c2cc1OC [GW843682X],> 256

# System: ACN;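 note: growth inhibition of the human ACN cell line, read out via cell viability testing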
# Assay: cells
# Type: functional, cell-based, Homo sapiens
# Conditions: Homo sapiens, ACN
# Description: SANGER: Inhibition of human ACN cell growth in a cell viability assay.
row,Compound,IC50 [nM]
1,COc1cc2ncn(-c3cc(OCc4ccccc4C(F)(F)F)c(C(N)=O)s3)c2cc1OC [GW843682X],33.3

# System: AM-38;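 note: growth inhibition of AM-38 cells of human origin, read out by a cell viability assay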
# Assay: cells
# Type: functional, cell-based, Homo sapiens
# Conditions: Homo sapiens, AM-38
# Description: SANGER: Inhibition of human AM-38 cell growth in a cell viability assay.
row,Compound,IC50 [nM]
1,COc1cc2ncn(-c3cc(OCc4ccccc4C(F)(F)F)c(C(N)=O)s3)c2cc1OC [GW843682X],> 256

# System: BT-474
# Assay: cells
# Type: functional, cell-based, Homo sapiens
# Conditions: Homo sapiens, BT-474
# Description: SANGER: Inhibition of human BT-474 cell growth in a cell viability assay.
row,Compound,IC50 [nM]
1,COc1cc2ncn(-c3cc(OCc4ccccc4C(F)(F)F)c(C(N)=O)s3)c2cc1OC [GW843682X],> 256

# System: Becker;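 note: growth inhibition of Becker cells, read out with a cell viability assay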
# Assay: cells
# Type: functional, cell-based, Homo sapiens
# Conditions: Homo sapiens, Becker
# Description: SANGER: Inhibition of human Becker cell growth in a cell viability assay.
row,Compound,IC50 [nM]
1,COc1cc2ncn(-c3cc(OCc4ccccc4C(F)(F)F)c(C(N)=O)s3)c2cc1OC [GW843682X],59.7

# System: C8166;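 note: growth inhibition of human C8166 cells measured by a cell viability assay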
# Assay: cells
# Type: functional, cell-based, Homo sapiens
# Conditions: Homo sapiens, C8166
# Description: SANGER: Inhibition of human C8166 cell growth in a cell viability assay.
row,Compound,IC50 [nM]
1,COc1cc2ncn(-c3cc(OCc4ccccc4C(F)(F)F)c(C(N)=O)s3)c2cc1OC [GW843682X],> 256

# System: TE-10;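 note: growth inhibition of TE-10 cells, measured by a cell viability assay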
# Assay: cells
# Type: functional, cell-based, Homo sapiens
# Conditions: Homo sapiens, TE-10
# Description: SANGER: Inhibition of human TE-10 cell growth in a cell viability assay.
row,Compound,IC50 [nM]
1,COc1cc2ncn(-c3cc(OCc4ccccc4C(F)(F)F)c(C(N)=O)s3)c2cc1OC [GW843682X],12.6

# System: TE-6;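 note: growth inhibition of TE-6 cells, read out with a cell viability assay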
# Assay: cells
# Type: functional, cell-based, Homo sapiens
# Conditions: Homo sapiens, TE-6
# Description: SANGER: Inhibition of human TE-6 cell growth in a cell viability assay.
row,Compound,IC50 [nM]
1,COc1cc2ncn(-c3cc(OCc4ccccc4C(F)(F)F)c(C(N)=O)s3)c2cc1OC [GW843682X],17.9

# System: TE-9;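 note: cell growth inhibition, measured with a cell viability readout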
# Assay: cells
# Type: functional, cell-based, Homo sapiens
# Conditions: Homo sapiens, TE-9
# Description: SANGER: Inhibition of human TE-9 cell growth in a cell viability assay.
row,Compound,IC50 [nM]
1,COc1cc2ncn(-c3cc(OCc4ccccc4C(F)(F)F)c(C(N)=O)s3)c2cc1OC [GW843682X],21.3

# System: U-87 MG;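 note: growth inhibition of the cells measured with a viability assay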
# Assay: cells
# Type: functional, cell-based, Homo sapiens, U-87MG ATCC
# Conditions: Homo sapiens, U-87 MG
# Description: SANGER: Inhibition of human U-87-MG cell growth in a cell viability assay.
row,Compound,IC50 [nM]
1,COc1cc2ncn(-c3cc(OCc4ccccc4C(F)(F)F)c(C(N)=O)s3)c2cc1OC [GW843682X],> 256

# System: UACC-257
# Assay: cells
# Type: functional, cell-based, Homo sapiens
# Conditions: Homo sapiens, UACC-257
# Description: SANGER: Inhibition of human UACC-257 cell growth in a cell viability assay.
row,Compound,IC50 [nM]
1,COc1cc2ncn(-c3cc(OCc4ccccc4C(F)(F)F)c(C(N)=O)s3)c2cc1OC [GW843682X],130
